Where a name gives a salt, the structure may show the parent alone.
Target: T1, Human D1 Receptor (Homo sapiens, UniProt P21728)
T1 construct: expressed in transfected cells; host or cells: LTK cell line over-expressing the D1 receptor
Experiment: Human D1 Receptor Binding Assay ([3H]-SCH23390 competition binding)
Details: over-expressing LTK human cell lines; 0.5 nM [3H]-SCH23390; 30 min at 37° C.; footnote a = geometric mean of ≧5 determinations, footnote b = single determination; read-out: Human D1 Receptor Binding, Ki (nM); Geometric mean of 2-4 determinations (unless otherwise indicated)
Experimental: The affinity of the compounds described herein was determined by competition binding assays similar to those described in Ryman-Rasmussen et al., “Differential activation of adenylate cyclase and receptor internalization by novel dopamine D1 receptor agonists”, Molecular Pharmacology 68(4):1039-1048 (2005).
D1 binding assays were performed using over-expressing LTK human cell lines. […] These ligand and tissue concentrations were used in time course studies to determine linearity and equilibrium conditions for binding. Binding was at equilibrium with the specified amount of tissue in 30 minutes at 37° C. […] The pellet was resuspended in assay buffer [50 mM Tris (pH 7.4@RT) containing 4 mM MgSO4 and 0.5 mM EDTA]. […] Non-specific binding was determined by radioligand binding in the presence of a saturating concentration of (+)-Butaclamol (10 μM), a D1 antagonist. After a 30 minute incubation period at 37° C., assay samples were rapidly filtered through Unifilter-96 GF/B PEI-coated filter plates and rinsed with 50 mM Tris buffer (pH 7.4 at 4° C.). […] The IC50 value (concentration at which 50% inhibition of specific binding occurs) was calculated by linear regression of the concentration-response data in Microsoft Excel. Ki values were calculated according to the Cheng-Prusoff equation: […]

T1 sequence (P21728 whole entry): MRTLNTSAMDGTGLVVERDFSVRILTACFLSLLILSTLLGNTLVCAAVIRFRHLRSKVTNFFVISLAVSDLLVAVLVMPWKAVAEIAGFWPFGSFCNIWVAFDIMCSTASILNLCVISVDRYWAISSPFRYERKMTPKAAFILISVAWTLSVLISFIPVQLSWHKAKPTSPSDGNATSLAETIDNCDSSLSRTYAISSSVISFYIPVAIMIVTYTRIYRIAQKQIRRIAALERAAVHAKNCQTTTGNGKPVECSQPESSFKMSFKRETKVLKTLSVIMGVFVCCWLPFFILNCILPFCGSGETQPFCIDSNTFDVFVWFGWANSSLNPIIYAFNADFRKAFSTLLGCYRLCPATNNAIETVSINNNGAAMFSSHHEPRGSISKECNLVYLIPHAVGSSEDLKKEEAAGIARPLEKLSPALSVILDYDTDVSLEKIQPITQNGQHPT

Q: How did the Ki turn out when `Cc1ncnc(C)c1-c1ccc(Oc2nccc3ncsc23)cc1C#N` [Example 7, 2-(4,6-dimethylpyrimidin-5-yl)-5-([1,3]thiazolo[5,4-c]pyridin-4-yloxy)benzonitrile] was run?
A: 184 nM

Q: For `Cc1cc(Oc2nccc3cc[nH]c23)ccc1-c1c(C)ncnc1C#N` [Example 55, 6-methyl-5-[2-methyl-4-(1H-pyrrolo[2,3-c]pyridin-7-yloxy)phenyl]pyrimidine-4-carbonitrile], which Ki is on record?
A: 614 nM

Q: With `Cc1ncnc(C)c1-c1ccc(Oc2nccc3ncsc23)cc1Cl` [Example 31, 4-[3-chloro-4-(4,6-dimethylpyrimidin-5-yl)phenoxy][1,3]thiazolo[5,4-c]pyridine] as the compound, how does the Ki read?
A: 71.9 nM

Q: Which Ki does the source give for `Cc1ncnc(C)c1-c1cc(F)c(Oc2nccc3ccsc23)c(F)c1` [Example 37, 7-[4-(4,6-dimethylpyrimidin-5-yl)-2,6-difluorophenoxy]thieno[2,3-c]pyridine] here?
A: 79.8 nM

Q: `Cc1cc(Oc2nccc3cn[nH]c23)ccc1-c1c(C)n[nH]c(=O)c1C` [Example 25, 4,6-dimethyl-5-[2-methyl-4-(1H-pyrazolo[3,4-c]pyridin-7-yloxy)phenyl]pyridazin-3(2H)-one] was tested. Which Ki did it give?
A: 120 nM

Q: Which Ki does the source give for `Cc1nc2ccnc(Oc3ccc(-c4c(C)n[nH]c(=O)c4C)c(C)c3)c2s1` [Example 56, 4,6-dimethyl-5-{2-methyl-4-[(2-methyl[1,3]thiazolo[5,4-c]pyridin-4-yl)oxy]phenyl}pyridazin-3(2H)-one] here?
A: 106 nM

Q: With `Cc1cc(Oc2nccc3ncsc23)ccc1-c1c(C)ncc2nccn12` (single isomer, unassigned; ent-2) [Example 62, 4-[3-methyl-4-(6-methylimidazo[1,2-a]pyrazin-5-yl)phenoxy][1,3]thiazolo[5,4-c]pyridine, ENT-2] as the compound, how does the Ki read?
A: 239 nM

Q: With `Cc1cc(Oc2nccc3ncsc23)ccc1-c1c(C)cnnc1C` (single isomer, unassigned) [Example 64, (+)-4-[4-(3,5-dimethylpyridazin-4-yl)-3-methylphenoxy][1,3]thiazolo[5,4-c]pyridine] as the compound, how does the Ki read?
A: 32.3 nM

Q: How did the Ki turn out when `COc1cc(Oc2nccc3ccsc23)ccc1-c1c(C)cnnc1C` [Example 42, 7-[4-(3,5-dimethylpyridazin-4-yl)-3-methoxyphenoxy]thieno[2,3-c]pyridine] was run?
A: 17.7 nM

Q: Which Ki does the source give for `Cc1ncnc(C)c1-c1ccc(Oc2ncnc3ccsc23)c(F)c1` [Example 19, 4-[4-(4,6-dimethylpyrimidin-5-yl)-2-fluorophenoxy]thieno[3,2-d]pyrimidine] here?
A: 117 nM

Q: `Cc1cc(Oc2ncnc3ncsc23)ccc1-c1c(C)ncnc1C` [Example 57, 7-[4-(4,6-dimethylpyrimidin-5-yl)-3-methylphenoxy][1,3]thiazolo[4,5-d]pyrimidine] was tested. Which Ki did it give?
A: 2340 nM

Q: For `Cc1cc(Oc2ncnc3ccsc23)ccc1-c1cn[nH]c(=O)c1C` [Example 4, 4-methyl-5-[2-methyl-4-(thieno[3,2-d]pyrimidin-4-yloxy)phenyl]pyridazin-3(2H)-one], which Ki is on record?
A: 68.4 nM

Q: `Cc1ncnc(C)c1-c1cc(F)c(Oc2nccc3ncsc23)c(F)c1` [Example 32, 4[4-(4,6-dimethylpyrimidin-5-yl)-2,6-difluorophenoxy][1,3]thiazolo[5,4-c]pyridine] was tested. Which Ki did it give?
A: 1060 nM

Q: For `COc1cc(Oc2ncnc3ccsc23)ccc1-c1c(C)ncnc1C` [Example 23, 4-[4-(4,6-dimethylpyrimidin-5-yl)-3-methoxyphenoxy]thieno[3,2-d]pyrimidine], which Ki is on record?
A: 178 nM

Q: Which Ki does the source give for `Cc1cc(Oc2nccc3ncsc23)ccc1-c1c(C)ncc(=O)n1C` (single isomer, unassigned) [Example 30, (+)-1,5-dimethyl-6-[2-methyl-4-([1,3]thiazolo[5,4-c]pyridin-4-yloxy)phenyl]pyrazin-2(1H)-one] here?
A: 116 nM

Q: How did the Ki turn out when `Cc1cc(Oc2ncnc3ccsc23)c(F)cc1-c1c(C)ncnc1C` [Example 18, 4-[4-(4,6-dimethylpyrimidin-5-yl)-2-fluoro-5-methylphenoxy]thieno[3,2-d]pyrimidine] was run?
A: 34.5 nM

Q: `Cc1cc(Oc2nccc3ncsc23)ccc1-c1c(C)ncc(=O)n1C` [Example 16, 1,5-dimethyl-6-[2-methyl-4-([1,3]thiazolo[5,4-c]pyridin-4-yloxy)phenyl]pyrazin-2(1H)-one] was tested. Which Ki did it give?
A: 82.8 nM

Q: How did the Ki turn out when `Cc1cc(Oc2nccc3ccoc23)ccc1-c1c(C)ncnc1C#N` [Example 52, 5-[4-(furo[2,3-c]pyridin-7-yloxy)-2-methylphenyl]-6-methylpyrimidine-4-carbonitrile] was run?
A: 212 nM

Q: With `Cc1cc(Oc2nccc3cc[nH]c23)ccc1-c1nccnc1C` [Example 53, 7-[3-methyl-4-(3-methylpyrazin-2-yl)phenoxy]-1H-pyrrolo[2,3-c]pyridine] as the compound, how does the Ki read?
A: 1890 nM

Q: With `Cc1ncnc(C)c1-c1ccc(Oc2ncnc3ccsc23)cc1F` [Example 24, 4-[4-(4,6-dimethylpyrimidin-5-yl)-3-fluorophenoxy]thieno[3,2-d]pyrimidine, trifluoroacetate salt] as the compound, how does the Ki read?
A: 531 nM

Q: For `Cc1ncnc(C)c1-c1ccc(Oc2nccc3ccsc23)c(F)c1C` [Example 40, 7-[4-(4,6-dimethylpyrimidin-5-yl)-2-fluoro-3-methylphenoxy]thieno[2,3-c]pyridine], which Ki is on record?
A: 40.7 nM

Q: `Cc1cc(Oc2nccc3cc[nH]c23)ccc1-c1c(C)ncc2nccn12` [Example 54, 6-methyl-5-[2-methyl-4-(1H-pyrrolo[2,3-c]pyridin-7-yloxy)phenyl]imidazo[1,2-a]pyrazine] was tested. Which Ki did it give?
A: 68.9 nM

Q: How did the Ki turn out when `Cc1ncnc(C)c1-c1ccc(Oc2ncnc3ccsc23)cc1Cl` [Example 17, 4-[3-chloro-4-(4,6-dimethylpyrimidin-5-yl)phenoxy]thieno[3,2-d]pyrimidine] was run?
A: 25.4 nM

Q: `COc1cc(Oc2nccc3ccsc23)ccc1-c1nccnc1C` [Example 10, 7-[3-methoxy-4-(3-methylpyrazin-2-yl)phenoxy]thieno[2,3-c]pyridine] was tested. Which Ki did it give?
A: 44.9 nM

Q: `Cc1cc(Oc2nccc3ccsc23)ccc1-c1c(C)ncnc1C` [Example 6, 7-[4-(4,6-dimethylpyrimidin-5-yl)-3-methylphenoxy]thieno[2,3-c]pyridine] was tested. Which Ki did it give?
A: 5.8 nM

Q: Which Ki does the source give for `Cc1ncnc(C)c1-c1ccc(Oc2nccc3ccsc23)c(F)c1` [Example 39, 7-[4-(4,6-dimethylpyrimidin-5-yl)-2-fluorophenoxy]thieno[2,3-c]pyridine] here?
A: 28.2 nM

Q: With `Cc1ncnc(C)c1-c1ccc(Oc2nccc3ccsc23)cc1Cl` [Example 36, 7-[3-chloro-4-(4,6-dimethylpyrimidin-5-yl)phenoxy]thieno[2,3-c]pyridine] as the compound, how does the Ki read?
A: 6.7 nM

Q: Which Ki does the source give for `Cc1cc(Oc2ncnc3ccsc23)ccc1-c1c(C)ncc(=O)n1C` [Example 15, 1,5-dimethyl-6-[2-methyl-4-(thieno[3,2-d]pyrimidin-4-yloxy)phenyl]pyrazin-2(1H)-one] here?
A: 34.5 nM

Q: `Cc1ncnc(C)c1-c1cc(F)c(Oc2ncnc3ccsc23)c(F)c1` [Example 33, 4-[4-(4,6-dimethylpyrimidin-5-yl)-2,6-difluorophenoxy]thieno[3,2-d]pyrimidine] was tested. Which Ki did it give?
A: 864 nM

Q: With `Cc1ncnc(C)c1-c1cc(F)c(Oc2nccc3ccsc23)cc1F` [Example 41, 7-[4-(4,6-dimethylpyrimidin-5-yl)-2,5-difluorophenoxy]thieno[2,3-c]pyridine] as the compound, how does the Ki read?
A: 24.3 nM

Q: With `Cc1cc(Oc2nccc3ncsc23)c(F)cc1-c1c(C)ncnc1C` [Example 34, 4-[4-(4,6-dimethylpyrimidin-5-yl)-2-fluoro-5-methylphenoxy][1,3]thiazolo[5,4-c]pyridine] as the compound, how does the Ki read?
A: 151 nM

Reference: patent US9688698B2, “Heteroaromatic compounds and their use as dopamine D1 ligands” (PFIZER INC., priority 2014, dated 2017)
